This assay has as its system pUAS_GFP_mandi. The assay can be described thus: Mandipropamid control of transcription, pUAS_GFP_mandi transient assay, anti-GFP Western blot. It is filed as in vivo, N. benthamiana. Conditions: 50 μM mandipropamid, 24 hours; FIG. 14. As for the experimental part:
To establish if the orthogonal mandipropamid response module could be used to control transcriptional responses in vivo, we designed an experimental system where PYR1*^-MANDI was fused to the GAL4 AD, and HAB1* fused to its BD. Nuclear export sequences were added to the BD-HAB1* component to reduce its access to the nucleus in the absence of mandipropamid and thereby reduce background transcription from the UAS. The constructs were assembled into a plant transformation vector along with a GAL4-responsive UAS in front of a CaMV minimal promoter driving GFP. The plant transformation vector used was a derivative of pCB308 (Xiang, Han, Lutziger, Wang, & Oliver, 1999) in which a kanamycin resistance marker cassette replaces the vector's centrally located uidA and bar expression cassettes. […]
The resultant construct (pUAS_GFP_mandi) was tested using transient assays in N. benthamiana, as described above. […] 24 hours later, leaf tissue was collected, frozen in liquid N2, and homogenized by bead beating using Precellys instrument (Bertin Technologies), for 6000 rpm for 30 seconds and then resuspended in SDS sample buffer containing protease inhibitor, separated by SDS-PAGE, electro-blotted onto nitrocellulose membrane and detected using an anti-GFP antibody as described in Example 4 above.
(In general: Immunoblotting shows a protein as a band on a membrane.)

This passage reports GFP production results from patent publication US10919943B2, “Mutant proteins enabling agrochemical control of plant gene expression” (The Regents of the University of California, priority 2016, dated 2021).

Each structure is given as a SMILES string.

With `C#CCOc1ccc(CCNC(=O)C(OCC#C)c2ccc(Cl)cc2)cc1OC` (stereo not shown) [mandipropamid], the GFP production result is on record as “mandipropamid inducible GFP production”.
